Results on 8 molecules are retold here after patent US12240853B2, “Compounds useful in HIV therapy” (GlaxoSmithKline Intellectual Property (No.2) Limited, priority 2019, dated 2025).

A short description of data set [1]: EFdA rat PK studies (SC and IM). It is filed as in vivo, Wistar Han rats. An excerpt:
A total of seven naïve male Wistar Han rats, 200-250 g, were received from the supplier equipped with a surgically-implanted jugular vein catheter (JVC) for blood sample collection. Following an acclimation period, the animals were assigned to the study based on acceptable health as determined by a staff veterinarian and catheter patency. Animals were placed into two groups of 3 rats per group. Fasting of the animals before or after dosing was not required.
On Day 1 each animal in Group 1 received a single subcutaneous injection of prepared test article at a target dose level of 20 mg/kg and at a dose volume of 0.33 mL/kg. Each animal in Group 2 received a single intramuscular injection of prepared test article into a thigh muscle at a target dose level of 20 mg/kg and at a dose volume of 0.33 mL/kg. The injection sites were shaved prior to dosing and identified with an indelible marker for daily monitoring during the study. The animals were manually restrained for dosing and were not sedated. The dose suspension was mixed well by inversion before each dose to ensure homogeneity. […] In addition, all animals are monitored twice daily by the veterinary staff for clinical abnormalities. […]
The PK plasma samples were analyzed by the Testing Facility to determine the concentration of EFdA using an LC-MS/MS Research Grade Assay (RGA-1) with sensitivity to 0.1 ng/mL. […]

For data set [2], the system named is HIV pseudotyped virus, M184V. The data set is classed as cell-based. The settings on record: U373 cells (CD4, CXCR4 or CCR5), luciferase signal after 3 days.
Data set [3] concerns HIV pseudotyped virus (NL4-3 provirus, luciferase reporter), WT. Kind of data set: PSV (pseudotyped virus) assay, WT. The settings on record: Human immunodeficiency virus 1, NL43, 72 h, read-out: WT IC50.
Method: A pseudotyped virus assay (PSV) was used to assess the potency of the HIV inhibitor.
The PSV assay was performed by using U373 cells stably transformed to express human CD4, the primary receptor for HIV entry and either human CXCR4 or human CCR5 which are the co-receptors required for HIV entry as target cells for infection. […] This dose-range was applied to U373 cells and the pre-made pseudotyped virus added. The amount of luciferase signal produced after 3 days of culture was used to reflect the level of pseudotyped virus infection. An IC50, or the concentration of inhibitor required to reduce PSV infection by 50% from the infection containing no inhibitor was calculated. […] IC50 values were determined from a 10 point dose response curve using 3-4-fold serial dilution for each compound, which spans a concentration range>1000 fold.
These values are plotted against the molar compound concentrations using the standard four parameter logistic equation: y=((Vmax*x^n)/(K^n+x^n))+Y2

Regarding `C#C[C@]1(CO)O[C@@H](n2cnc3c(N)nc(F)nc32)C[C@@H]1O` [EFdA, (2R,3S,5R)-5-(6-amino-2-fluoro-9H-purin-9-yl)-2-ethynyl-2-(hydroxymethyl)tetrahydrofuran-3-ol], in data set [1] (20 mg/kg single SC or IM injection, study period to Day 29), the “Clinical observations and injection site reactions” value is “No abnormal clinical observations and no injection site reactions”. The “Detectable duration of exposure of EFdA” value in data set [1] (IM and SC administration of 20 mg/kg EFdA) is “less than 8 days”.
One may read the IC50 as the point on the concentration scale where inhibition reaches its midpoint. On to `C#C[C@]1(COC(=O)CCCC)O[C@@H](n2cnc3c(NC(=O)CCCCCCCCCCC)nc(F)nc32)C[C@@H]1O` [Example 28, ((2R,3S,5R)-5-(6-dodecanamido-2-fluoro-9H-purin-9-yl)-2-ethynyl-3-hydroxytetrahydrofuran-2-yl)methyl Pentanoate], for which the figures for the IC50 in data set [2] and in data set [3] were 26 nM and 6 nM, respectively.
`C#C[C@]1(COC(=O)C(CCC)CCC)O[C@@H](n2cnc3c(N)nc(F)nc32)C[C@@H]1OC(=O)CCCCCCCCCCC` [Example 29, (2R,3S,5R)-5-(6-amino-2-fluoro-9H-purin-9-yl)-2-ethynyl-2-(((2-propylpentanoyl)oxy)methyl)tetrahydrofuran-3-yl Dodecanoate]: the IC50 in data set [2] came out at 1350 nM; in data set [3], 238 nM.
The corresponding values for `C#C[C@]1(COC(=O)C(CCC)CCC)O[C@@H](n2cnc3c(N)nc(F)nc32)C[C@@H]1OC(=O)CCC` [Example 30, ((2R,3S,5R)-5-(6-amino-2-fluoro-9H-purin-9-yl)-3-(butyryloxy)-2-ethynyltetrahydrofuran-2-yl)methyl 2-propylpentanoate] are 1500 nM and 334 nM.
The matching figures for `C#C[C@@]12COC(=O)CCCCCCCCCCCCC(=O)O[C@H]1C[C@H](n1cnc3c(N)nc(F)nc31)O2` [Example 33, (2R,3aS,20aR)-2-(6-amino-2-fluoro-9H-purin-9-yl)-20a-ethynylhexadecahydro-2H-furo[3,2-b][1,5]dioxacyclononadecine-5,18-dione]: 86 nM and 17 nM.
The matching figures for `C#C[C@]1(COC(=O)CNC(=O)CCCCCC)O[C@@H](n2cnc3c(N)nc(F)nc32)C[C@@H]1O` [Example 34, ((2R,3S,5R)-5-(6-amino-2-fluoro-9H-purin-9-yl)-2-ethynyl-3-hydroxytetrahydrofuran-2-yl)methyl Heptanoylglycinate]: 25 nM and 4 nM.
As for `C#C[C@]1(COC(=O)CNC(=O)CCCCCCCCCCCCC)O[C@@H](n2cnc3c(N)nc(F)nc32)C[C@@H]1O` [Example 35, ((2R,3S,5R)-5-(6-amino-2-fluoro-9H-purin-9-yl)-2-ethynyl-3-hydroxytetrahydrofuran-2-yl)methyl Tetradecanoylglycinate], the IC50 in data set [2] was 9 nM; in data set [3], 1 nM.
The matching figures for `C#C[C@]1(COC(=O)[C@H](C)NC(=O)CCCCCC)O[C@@H](n2cnc3c(N)nc(F)nc32)C[C@@H]1O` [Example 36, ((2R,3S,5R)-5-(6-amino-2-fluoro-9H-purin-9-yl)-2-ethynyl-3-hydroxytetrahydrofuran-2-yl)methyl heptanoyl-L-alaninate]: 21 nM and 4 nM.
